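Five concentrations, 48 hours, 96-well plates. At the GI50, growth is halved. At the TGI there is no net growth.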
Key:
Test in all cases: NCI anticancer screen, dose series, 48 h
RXF 393 renal = system: RXF 393 renal
NCI-H23 lung = system: NCI-H23 lung
SNB-19 CNS = system: SNB-19 CNS
UACC-257 melanoma = system: UACC-257 melanoma
HOP-62 NSCLC = system: HOP-62 NSCLC
HCC-2998 colon = system: HCC-2998 colon
A498 renal = system: A498 renal
SK-MEL-2 melanoma = system: SK-MEL-2 melanoma
SN12C renal = system: SN12C renal
SF-268 CNS = system: SF-268 CNS

With `CCC1CCC2C3CC=C4CC(OC(C)=O)C(N)CC4(C)C3CCC12C` (stereo not given) the TGI (RXF 393 renal) was 3.68 µM, the TGI (NCI-H23 lung) was 13.6 µM and the TGI (SNB-19 CNS) was 6.49 µM. The TGI (UACC-257 melanoma) was 4.55 µM, the TGI (HOP-62 NSCLC) was 4.47 µM and the TGI (HCC-2998 colon) was 3.06 µM. The TGI (A498 renal) was 9.63 µM, the TGI (SK-MEL-2 melanoma) was 8.32 µM and the TGI (SN12C renal) was 9.87 µM. For the same compound, the TGI (SF-268 CNS) was 9.08 µM.
With `CC/C=C\C[C@H](O)C/C=C1/C(=O)C=C[C@@H]1C/C=C\CCCC(=O)OCCS(=O)(=O)c1ccccc1` the GI50 (RXF 393 renal) was 2.75 µM, the TGI (RXF 393 renal) was 6.47 µM and the GI50 (NCI-H23 lung) was 2.82 µM. It also gave a TGI (NCI-H23 lung) of 10.6 µM, a GI50 (SNB-19 CNS) of 5.06 µM and a TGI (SNB-19 CNS) of 19.4 µM. It also gave a GI50 (UACC-257 melanoma) of 4.54 µM, a TGI (UACC-257 melanoma) of 17.3 µM and a GI50 (HOP-62 NSCLC) of 3.47 µM. It also gave a TGI (HOP-62 NSCLC) of 10.5 µM, a GI50 (HCC-2998 colon) of 1.99 µM and a TGI (HCC-2998 colon) of 3.64 µM. The GI50 (A498 renal) was 19.1 µM, the TGI (A498 renal) was 35.5 µM and the GI50 (SK-MEL-2 melanoma) was 4.14 µM. The TGI (SK-MEL-2 melanoma) was 17.9 µM, the GI50 (SN12C renal) was 3.62 µM and the TGI (SN12C renal) was 19.1 µM. It also gave a GI50 (SF-268 CNS) of 4.37 µM and a TGI (SF-268 CNS) of 22.9 µM.
In the case of `CC1(OCc2ccccc2)C(=O)N2C1N(C(=O)OCc1ccccc1)CC2(C)C` (stereo not given), the TGI (RXF 393 renal) is reported as > 100 µM, the TGI (NCI-H23 lung) is reported as > 100 µM and the TGI (SNB-19 CNS) is reported as > 100 µM. The TGI (UACC-257 melanoma) was > 100 µM, the TGI (HOP-62 NSCLC) was > 100 µM and the TGI (HCC-2998 colon) was > 100 µM. The TGI (A498 renal) was > 100 µM, the TGI (SK-MEL-2 melanoma) was > 100 µM and the TGI (SN12C renal) was > 100 µM. For the same compound, the TGI (SF-268 CNS) was > 100 µM.
For `COc1ccc(-c2cc(=O)c3c(OC)c(O)c(OC)cc3o2)cc1`, the TGI (RXF 393 renal) was > 100 µM, the TGI (NCI-H23 lung) was > 100 µM and the TGI (SNB-19 CNS) was > 100 µM. The TGI (UACC-257 melanoma) was > 100 µM, the TGI (HOP-62 NSCLC) was > 100 µM and the TGI (HCC-2998 colon) was > 100 µM. The TGI (A498 renal) was 88.5 µM, the TGI (SK-MEL-2 melanoma) was > 100 µM and the TGI (SN12C renal) was > 100 µM. For the same compound, the TGI (SF-268 CNS) was > 100 µM.

Source: PubChem BioAssay (NCI)
